Tests used:
Experiment in all cases: relative viability (nuclei count vs DMSO), 5 days (fraction); higher = more cells survive
Alisertib + Decitabine = compound: COc1cc(Nc2ncc3c(n2)-c2ccc(Cl)cc2C(c2c(F)cccc2OC)=NC3)ccc1C(=O)O [Alisertib] + Nc1ncn([C@H]2C[C@H](O)[C@@H](CO)O2)c(=O)n1 [Decitabine] (partner 2 µM)
Outline: (§1)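 For relative viability, nuclei counts in treated wells were divided by those in vehicle wells. Lung cancer cell lines had been pin-tool dosed in 1536-well plates the day after seeding and cultured for 5 days, then fixed and stained in one step (final 0.05% Triton X-100, 1% formaldehyde, 1 ug/ml Hoechst) and imaged at 4×. Doses were one drug alone or a fixed anchor-drug dose plus five library-drug doses (not always all listed) in √10 steps, and values are duplicate-plate medians.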

Alisertib + Tozasertib = compound: COc1cc(Nc2ncc3c(n2)-c2ccc(Cl)cc2C(c2c(F)cccc2OC)=NC3)ccc1C(=O)O [Alisertib] + Cc1cc(Nc2cc(N3CCN(C)CC3)nc(Sc3ccc(NC(=O)C4CC4)cc3)n2)n[nH]1 [Tozasertib] (partner 0.1 µM)
Outline: as §1

Alisertib + AZD7762 = compound: COc1cc(Nc2ncc3c(n2)-c2ccc(Cl)cc2C(c2c(F)cccc2OC)=NC3)ccc1C(=O)O [Alisertib] + NC(=O)Nc1cc(-c2cccc(F)c2)sc1C(=O)N[C@H]1CCCNC1 [AZD7762] (partner 0.2 µM)
Outline: as §1

Alisertib + Bortezomib = compound: COc1cc(Nc2ncc3c(n2)-c2ccc(Cl)cc2C(c2c(F)cccc2OC)=NC3)ccc1C(=O)O [Alisertib] + CC(C)C[C@H](NC(=O)[C@H](Cc1ccccc1)NC(=O)c1cnccn1)B(O)O [Bortezomib] (partner 0.002 µM)
Outline: as §1

Cell Line | relative viability (Alisertib + Decitabine; first compound 0.005 µM) | relative viability (Alisertib + Decitabine; first compound 0.01581 µM) | relative viability (Alisertib + Decitabine; first compound 0.05 µM) | relative viability (Alisertib + Decitabine; first compound 0.1581 µM) | relative viability (Alisertib + Decitabine; first compound 0.5 µM) | relative viability (Alisertib + Tozasertib; first compound 0.005 µM) | relative viability (Alisertib + Tozasertib; first compound 0.01581 µM) | relative viability (Alisertib + Tozasertib; first compound 0.05 µM) | relative viability (Alisertib + Tozasertib; first compound 0.1581 µM) | relative viability (Alisertib + Tozasertib; first compound 0.5 µM) | relative viability (Alisertib + AZD7762; first compound 0.005 µM) | relative viability (Alisertib + AZD7762; first compound 0.01581 µM) | relative viability (Alisertib + AZD7762; first compound 0.05 µM) | relative viability (Alisertib + AZD7762; first compound 0.1581 µM) | relative viability (Alisertib + AZD7762; first compound 0.5 µM) | relative viability (Alisertib + Bortezomib; first compound 0.005 µM) | relative viability (Alisertib + Bortezomib; first compound 0.01581 µM) | relative viability (Alisertib + Bortezomib; first compound 0.05 µM) | relative viability (Alisertib + Bortezomib; first compound 0.1581 µM) | relative viability (Alisertib + Bortezomib; first compound 0.5 µM)
NCI-H1944 | 0.401 | 0.436 | 0.324 | 0.266 | 0.186 | 0.242 | 0.239 | 0.258 | 0.195 | 0.187 | 0.531 | 0.54 | 0.421 | 0.147 | 0.147 |  |  |  |  | 
UMC-11 | 0.514 | 0.324 | 0.291 | 0.213 | 0.214 | 0.201 | 0.23 | 0.201 | 0.213 | 0.219 |  |  |  |  |  | 0.34 | 0.184 | 0.0876 | 0.107 | 0.122
COR-L 105 | 0.633 | 0.698 | 0.481 | 0.349 | 0.324 | 0.31 | 0.346 | 0.299 | 0.352 | 0.276 |  |  |  |  |  | 0.757 | 0.875 | 0.447 | 0.27 | 0.218
EBC-1 |  |  |  |  |  |  |  |  |  |  |  |  |  |  |  | 0.537 | 0.467 | 0.239 | 0.186 | 0.162
SW 1573 | 0.419 | 0.338 | 0.212 | 0.125 | 0.109 | 0.135 | 0.153 | 0.132 | 0.147 | 0.158 |  |  |  |  |  | 0.937 | 0.726 | 0.492 | 0.29 | 0.161
NCI-H1648 |  | 0.478 | 0.405 | 0.279 | 0.247 | 0.637 | 0.272 | 0.218 | 0.303 | 0.205 |  | 0.654 | 0.62 | 0.314 | 0.223 |  |  |  |  | 
SW 900 | 0.419 | 0.377 | 0.296 | 0.213 | 0.255 | 0.557 | 0.54 | 0.375 | 0.241 | 0.191 | 0.568 | 0.617 | 0.637 | 0.232 | 0.17 |  |  |  |  | 
NCI-H520 | 0.435 | 0.451 | 0.355 | 0.236 | 0.242 | 0.372 | 0.418 | 0.376 | 0.409 | 0.357 |  |  |  |  |  | 0.463 | 0.377 | 0.199 | 0.173 | 0.186
NCI-H1792 | 0.575 | 0.496 | 0.213 | 0.132 | 0.0838 |  |  |  |  |  | 0.571 | 0.343 | 0.135 | 0.0427 | 0.0721 | 0.935 | 0.871 | 0.555 | 0.21 | 0.0867
NCI-H1793 | 0.359 | 0.309 | 0.196 | 0.24 | 0.206 | 0.45 | 0.231 | 0.269 | 0.176 | 0.185 | 0.327 | 0.166 | 0.215 | 0.148 | 0.115 |  |  |  |  | 
NCI-H1563 |  |  |  |  |  |  |  |  |  |  |  |  |  |  |  | 0.835 | 0.817 | 0.833 | 0.858 | 0.604
NCI-H1395 | 0.649 | 0.618 | 0.505 | 0.471 | 0.393 | 0.725 | 0.708 | 0.488 | 0.478 | 0.391 | 0.363 | 0.403 | 0.37 | 0.376 | 0.361 |  |  |  |  | 
NCI-H1299 |  |  |  |  |  |  |  |  |  |  |  |  |  |  |  | 0.995 | 0.983 | 0.674 | 0.457 | 0.286
NCI-H2228 |  |  |  |  |  | 0.322 | 0.19 | 0.147 | 0.132 | 0.109 |  |  |  |  |  | 0.809 | 0.827 | 0.406 | 0.142 | 0.134
NCI-H2170 | 0.452 | 0.448 | 0.3 | 0.272 | 0.147 | 0.658 | 0.674 | 0.321 | 0.261 | 0.161 | 0.85 | 0.608 | 0.59 | 0.199 | 0.176 |  |  |  |  | 
NCI-H522 | 0.69 | 0.686 | 0.558 | 0.443 | 0.408 | 0.543 | 0.565 | 0.489 | 0.517 | 0.439 | 0.818 | 0.843 | 0.785 | 0.406 | 0.411 |  |  |  |  | 
A549 | 0.247 | 0.207 | 0.125 | 0.0435 | 0.0399 |  |  |  |  |  |  |  |  |  |  |  |  |  |  | 
SK-LU-1 | 0.58 | 0.665 | 0.239 | 0.307 | 0.276 | 0.303 | 0.286 | 0.219 | 0.224 | 0.205 |  |  |  |  |  | 0.963 | 0.862 | 0.503 | 0.403 | 0.253
NCI-H358 | 0.222 | 0.186 | 0.121 | 0.086 | 0.098 | 0.093 | 0.121 | 0.0917 | 0.0959 | 0.079 | 0.424 | 0.433 | 0.183 | 0.175 | 0.165 |  |  |  |  | 
CAL-12T |  |  |  |  |  | 0.333 | 0.28 | 0.202 | 0.199 | 0.178 | 0.528 | 0.314 | 0.183 | 0.224 | 0.201 | 0.768 | 0.489 | 0.296 | 0.221 | 0.201
COR-L23 | 0.422 | 0.419 | 0.307 | 0.146 | 0.118 | 0.439 | 0.213 | 0.119 | 0.124 | 0.114 |  |  |  |  |  | 0.895 | 0.789 | 0.647 | 0.137 | 0.131
IA-LM |  |  |  |  |  |  |  |  |  |  |  |  |  |  |  | 0.635 | 0.578 | 0.465 | 0.195 | 0.0832
NCI-H661 | 0.459 | 0.501 | 0.37 | 0.312 | 0.293 | 0.342 | 0.377 | 0.386 | 0.406 | 0.39 |  |  |  |  |  | 0.845 | 0.557 | 0.521 | 0.304 | 0.297
NCI-H1650 | 0.336 | 0.326 | 0.2 | 0.162 | 0.189 | 0.46 | 0.394 | 0.2 | 0.246 | 0.202 |  |  |  |  |  | 0.175 | 0.21 | 0.174 | 0.182 | 0.199
Calu-6 |  |  |  |  |  |  |  |  |  |  |  |  |  |  |  | 0.89 | 0.57 | 0.316 | 0.189 | 0.195

Source: the supplement of paper PMC10307832
